Structures can show the parent of a compound that is named as a salt.
Columns and labels:
THP-1 cells = experiment: Modulation of the production of ROS induced by LPS, cytofluorometry with DCFH; type: cell-based, human; settings: 1 hour treatment, serum-free medium, LPS 0.1 μg/ml, compared with Trolox 100 μM, FIG. 1
Method: (§1) Two cellular systems were used: NCTC 2544, a line of human keratinocytes, and THP-1, a human promyelocytic line. The results were expressed as mean±standard deviation. Each experiment was repeated at least twice.
Tributyltin (TBT) and lipopolysaccharide (LPS) are used as […] inducers of radical species. The production of ROS was evaluated by cytofluorometry techniques for the THP-1 cell line, using DCFH as stain.
The optimum times and concentrations for cytofluorometric measurement of ROS were identified in preliminary experiments.
The vitamin E derivative 6-hydroxy-2,5,7,8-tetramethylchroman-2-carboxylic acid (Trolox), at a concentration of 100 μM, was used as positive control.
The THP-1 cells were treated for 1 hour with compounds 1 and 2 of the invention at a concentration of 100 μg/ml, with compound 3 at a concentration of 200 μg/ml and with Trolox 100 μM in serum-free medium, loaded in the last 30 minutes with DCFH (10 μM) and then treated in the presence or absence of LPS (0.1 μg/ml) and analysed in the cytofluorometer.

NCTC 2544 cells = experiment: Lipid lipoperoxidation induced by TBT, malondialdehyde content via thiobarbituric acid; type: cell-based, human; settings: 24 hours pre-treatment at maximum tolerated concentration, then TBT 2.5 μM for 24 hours, FIG. 2
Method: as §1
Lipid peroxidation was evaluated on the NCTC 2544 cells by measuring the content of malondialdehyde, one of the main by-products of lipid peroxidation, through its reactivity with thiobarbituric acid. The results are expressed as absorbance/mg protein. The protein content was evaluated by the Bradford method.
The NCTC cells were treated for 24 hours in the presence or in the absence of the maximum tolerated concentration of said compounds 1, 2, 3, and then stimulated with TBT 1-2.5 μM for a further 24 hours.
Trolox 100 μM was used as positive control.

SMILES: C/C=C/C=C/C=C/C(=O)O [compound 3, 2E,4E,6E-octatrienoic acid, L-lysine salt]
- production of ROS induced by LPS (THP-1 cells; compound at 200 μg/ml): nullifying the production of ROS induced by LPS 0.1 μg/ml to an extent not less than Trolox

SMILES: C/C=C/C=C/C=C/C(=O)[O-].[K+] [compound 2, potassium 2E,4E,6E-octatrienoate]
- production of ROS induced by LPS (THP-1 cells; compound at 100 μg/ml): nullifying the production of ROS induced by LPS 0.1 μg/ml to an extent not less than Trolox
- lipoperoxidation induced by TBT (malondialdehyde content) (NCTC 2544 cells): statistically significant (p<0.05) decrease of lipoperoxidation

SMILES: C/C=C/C=C/C=C/C(=O)O [compound 1, 2E,4E,6E-octatrienoic acid]
- production of ROS induced by LPS (THP-1 cells; compound at 100 μg/ml): nullifying the production of ROS induced by LPS 0.1 μg/ml to an extent not less than Trolox
- lipoperoxidation induced by TBT (malondialdehyde content) (NCTC 2544 cells): statistically significant (p<0.05) decrease of lipoperoxidation
